# From patent US6214834A, “Integrin inhibitor prodrugs” (Dupont Pharmaceuticals Company, priority 1998, dated 2001)
# Values joined by “and” are separate entries in the source; they are usually repeats but may differ in a detail not shown here. Equal entries are not always repeated. Where two headings read alike, the source gives them in different places.
# Assays:
# [1] = Free solution electrophoretic mobility by capillary electrophoresis; format: physicochemical; conditions: for Electrophoretic Mobility: 400 V/cm, 25° C.
# Protocol: To obtain a preliminary indication of the feasibility of transdermal iontophoretic delivery and the possible dependence on pH, the solution mobilities of the methyl and choline esters were evaluated using capillary electrophoresis. Free solution mobilities were determined using a capillary electrophoresis instrument equipped with a u.v. detector and a cationic amine capillary column of 57 cm total length, 50 cm length to detector, 370 μm o.d.,50 μm i.d. Buffers used were pH 4.5 acetate, pH 6.0 MES and pH 8.0 TRIS. All buffer concentrations were 50 mM. Elution was at 400 V/cm and 25° C., and detection was at 214 nm. Compounds SM192 and SD209 were examined. Structures are given in Scheme 16. For each compound, 2 mg/mL stock solutions were prepared and diluted 1:1 with the running buffer. Therefore, electrophoretic mobility of compound SD209 is about two-fold higher than that of compound SM192 at all pH values examined.
# [2] = Partition coefficient estimated by HPLC method; format: physicochemical; conditions: estimated using an HPLC method; read-out: HPLC Log P
# [3] = Plasma concentrations after i.v. bolus of SD209 in pigs (in vivo conversion of prodrug); design: species or system Yorkshire domestic swine
# Protocol: Data indicating conversion of the prodrug SD209 to the drug, SM256 once administered into circulation in vivo is represented in Table 5. The data in Table 5 id generated from intravenous administration of the prodrug, SD209, in pigs.
# SD209 was injected intravenously at a dose of 0.5 mg/kg and plasma was seperated after blood sampling at different intervals. Following solid phase extraction of the plasma, residues were chromatographed on a supelcosil ABZ HPLC column and detected by positive ion electrospray MS/MS using a Sciex API 300. This combination provides a specific assay for both SD209 and SM256. The linear range of the assay for SM256 was from 1 ng/ml to 2000 ng/ml. Plasma concentration data for both pigs are provided below
# [4] = Surface tension measurements (DuNouy tensiometer); format: physicochemical; conditions: for Surface Tension: pH ~4, 22° C.
# Protocol: Surface activity behavior of the two prodrugs, SM192 and SD209 was examined using tensiometry. Stock solutions of each were prepared at a concentration of 0.06 M in water and dilutions were made using an aqueous solution of the corresponding salt counterion of the prodrug adjusted to a pH ~4. Surface tension measurements were run at 22° C. on a DuNouy tensiometer. Three measurements were run on each solution concentration.
# [5] = pig 1, Time 10.0 hr, i.v. bolus 0.5 mg/kg of SD209
# [6] = pig 1, Time 14.0 hr, i.v. bolus 0.5 mg/kg of SD209
# [7] = pig 1, Time 24.0 hr, i.v. bolus 0.5 mg/kg of SD209
# [8] = pig 2, Time 7.0 hr, i.v. bolus 0.5 mg/kg of SD209
# [9] = pig 2, Time 10.0 hr, i.v. bolus 0.5 mg/kg of SD209
# [10] = pig 2, Time 14.0 hr, i.v. bolus 0.5 mg/kg of SD209
# [11] = pig 2, Time 24.0 hr, i.v. bolus 0.5 mg/kg of SD209
Structure (SMILES),Electrophoretic Mobility ([1]; pH 4.5 acetate buffer 50 mM),Electrophoretic Mobility ([1]; pH 6.0 MES buffer 50 mM),Electrophoretic Mobility ([1]; pH 8.0 TRIS buffer 50 mM),chromatographic logP [2],"plasma conc. [3, 5]","plasma conc. [3, 6]","plasma conc. [3, 7]","plasma conc. [3, 8]","plasma conc. [3, 9]","plasma conc. [3, 10]","plasma conc. [3, 11]",Surface Tension ([4]; Concentration 0.0015 M),Surface Tension ([4]; Concentration 0.003 M),Surface Tension ([4]; Concentration 0.010 M),Surface Tension ([4]; Concentration 0.015 M),Surface Tension ([4]; Concentration 0.030 M),Surface Tension ([4]; Concentration 0.045 M),Surface Tension ([4]; Concentration 0.054 M),Surface Tension ([4]; Concentration 0.06 M),other results
Cc1cc(C)c(S(=O)(=O)NC(CNC(=O)c2ccc3c(cnn3CCCNc3ncc[nH]3)c2)C(=O)OCC[N+](C)(C)C)c(C)c1 (centres unmarked) [SD209],3.2 (cm^2 /v/sec) × 10^-4,3.0 (cm^2 /v/sec) × 10^-4,2.3 (cm^2 /v/sec) × 10^-4,0.95,BQL,BQL,BQL,BQL,BQL,BQL,BQL,72.6 ± 0.06 dynes/cm,72.4 ± 0.06 dynes/cm,72.2 ± 0.2 dynes/cm,67.4 ± 0.6 dynes/cm,65.5 ± 0.5 dynes/cm,61.9 ± 0.4 dynes/cm,63.7 ± 0.4 dynes/cm,61.2 ± 0.3 dynes/cm,"electrophoretic mobility relative to compound SM192 ([1]; higher than SM192 at all pH values examined): about two-fold; plasma conc. ([3]; pig 1, Time 1.0 hr, i.v. bolus 0.5 mg/kg of SD209): BQL; plasma conc. ([3]; pig 1, Time 3.0 hr, i.v. bolus 0.5 mg/kg of SD209): BQL; plasma conc. ([3]; pig 1, Time 5.0 hr, i.v. bolus 0.5 mg/kg of SD209): BQL; plasma conc. ([3]; pig 1, Time 7.0 hr, i.v. bolus 0.5 mg/kg of SD209): BQL; plasma conc. ([3]; pig 2, Time 1.0 hr, i.v. bolus 0.5 mg/kg of SD209): BQL; plasma conc. ([3]; pig 2, Time 2.0 hr, i.v. bolus 0.5 mg/kg of SD209): BQL; plasma conc. ([3]; pig 2, Time 3.0 hr, i.v. bolus 0.5 mg/kg of SD209): BQL; plasma conc. ([3]; pig 2, Time 5.0 hr, i.v. bolus 0.5 mg/kg of SD209): BQL; concentration at 0 h ([3]; pig, plasma, iv, 0.5 mg/kg, pig 1, Time 0.00 hr, i.v. bolus 0.5 mg/kg of SD209, read-out: plasma conc.): < 2 ng/mL; concentration at 0.1 h ([3]; pig, plasma, iv, 0.5 mg/kg, pig 1, Time 0.1 hr, i.v. bolus 0.5 mg/kg of SD209, read-out: plasma conc.): 60 ng/mL; concentration at 0.25 h ([3]; pig, plasma, iv, 0.5 mg/kg, pig 1, Time 0.25 hr, i.v. bolus 0.5 mg/kg of SD209, read-out: plasma conc.): 20 ng/mL; concentration at 0 h ([3]; pig, plasma, iv, 0.5 mg/kg, pig 2, Time 0.00 hr, i.v. bolus 0.5 mg/kg of SD209, read-out: plasma conc.): < 2 ng/mL; concentration at 0.1 h ([3]; pig, plasma, iv, 0.5 mg/kg, pig 2, Time 0.1 hr, i.v. bolus 0.5 mg/kg of SD209, read-out: plasma conc.): 20 ng/mL; concentration at 0.25 h ([3]; pig, plasma, iv, 0.5 mg/kg, pig 2, Time 0.25 hr, i.v. bolus 0.5 mg/kg of SD209, read-out: plasma conc.): 3 ng/mL; concentration at 0.5 h ([3]; pig, plasma, iv, 0.5 mg/kg, pig 2, Time 0.5 hr, i.v. bolus 0.5 mg/kg of SD209, read-out: plasma conc.): < 2 ng/mL; in vivo conversion of prodrug to SM256 in the circulation ([3]; pigs, i.v. 0.5 mg/kg): quantitatively converted to SM256; critical micelle concentration (not attained up to) ([4]; no CMC attained even at the highest concentrations): > 0.6 M"
COC(=O)C(CNC(=O)c1ccc2c(cnn2CCCNc2ncc[nH]2)c1)NS(=O)(=O)c1c(C)cc(C)cc1C (centres unmarked) [SM192],1.7 (cm^2 /v/sec) × 10^-4,1.6 (cm^2 /v/sec) × 10^-4,1.1 (cm^2 /v/sec) × 10^-4,3.73,,,,,,,,69.1 ± 0.6 dynes/cm,61.7 ± 0.2 dynes/cm,53.5 ± 0.3 dynes/cm,51.5 ± 0.1 dynes/cm,50.4 ± 0.2 dynes/cm,49.8 ± 0.4 dynes/cm,50.0 ± 0.6 dynes/cm,49.5 ± 0.3 dynes/cm,Surface Tension ([4]; Concentration 0.00015 M): 73.0 ± 0.2 dynes/cm; Surface Tension ([4]; Concentration 0.0003 M): 73.0 ± 0.2 dynes/cm; Surface Tension ([4]; Concentration 0.0006 M): 72.3 ± 0.1 dynes/cm; Surface Tension ([4]; Concentration 0.001 M): 69.3 ± 0.6 dynes/cm; Surface Tension ([4]; Concentration 0.006 M): 56.9 ± 0.4 dynes/cm; critical micelle concentration (CMC) ([4]; from surface tension vs concentration): ~ 16 mM and ~ 11 mg/mL
Cc1cc(C)c(S(=O)(=O)NC(CNC(=O)c2ccc3c(cnn3CCCNc3ncc[nH]3)c2)C(=O)O)c(C)c1 (centres unmarked) [SM256],,,,,BQL,BQL,BQL,BQL,BQL,BQL,BQL,,,,,,,,,
